Positions count from the first letter of the chain named. Ends that are not written are not given here.
Key:
Details in all cases: peptide immobilized, protein 2 μM, 25° C., TBS pH 7.4, KD = Koff/Kon
[1] = biological target: T1, DISC1 C-region (residues 691-836) mutant S704C (Homo sapiens, UniProt Q9NRI5, S704C); assay: Bio-layer interferometry (BLI) binding of immobilized peptides to S704C C-region
T1 construct: DISC1 C-region (residues 691-836) mutant versions S704C, and/or 713E and/or L807-FS
T1 sequence (Q9NRI5 691-836 S704C): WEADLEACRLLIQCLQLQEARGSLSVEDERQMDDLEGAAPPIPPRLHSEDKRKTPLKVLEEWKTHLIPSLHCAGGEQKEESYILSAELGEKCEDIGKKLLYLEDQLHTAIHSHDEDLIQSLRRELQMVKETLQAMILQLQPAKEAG
Method: (§1) Bio-layer interferometry (BLI) for identification of peptide leads. Binding of the peptides with the C-region constructs (WT, S713E, S704C and L807-FS) were investigated using an Octet (ForteBio) instrument. Prior to measurements, all peptides were solubilized in phosphate buffered saline (PBS) containing 20 mM Na-phosphate, pH 7.4, and 150 mM NaCl. For coupling of the peptide (ligand), the A2RG sensor chip (Sartorius GmbH) were activated with 1-ethyl-3-(3-dimethylaminopropyl) carbodiimide (EDC)/N hydroxysuccinimide (NHS) (200 mM/50 mM); the peptides were diluted to 2 μM in 10 mM sodium acetate, pH 4.0, and immobilized to the sensor chip, and the flow cell was deactivated with 0.1 M ethanolamine-HCl, pH 8.5. Titrations of the above-mentioned C-region and the constructs were performed at 25° C. with TBS, pH 7.4 as the running buffer using protein concentrations of 2 μM without intermittent regeneration. Data analysis of peptide-protein interaction. In order to assess the binding isotherms of the protein to the immobilized peptides, I derived the binding affinity (KD) by computing the on-rate (Kon) and the off-rate (Koff) by deriving the reciprocals of the exponential fittings of association and dissociation (OriginPro 2020). The binding affinity (KD) was derived by dividing the off-rate (Koff) with the on-rate (Kon).

[2] = biological target: T2, DISC1 C-region (residues 691-836) mutant S713E (Homo sapiens, UniProt Q9NRI5, S713E); assay: Bio-layer interferometry (BLI) binding of immobilized peptides to S713E C-region
T2 construct: DISC1 C-region (residues 691-836) mutant versions S704C, and/or 713E and/or L807-FS
T2 sequence (Q9NRI5 691-836 S713E): T1 sequence (Q9NRI5 691-836 S704C) with C14S, S23E
Method: as §1

[3] = biological target: DISC1 C-region (residues 691-836) mutant L807-FS; assay: Bio-layer interferometry (BLI) binding of immobilized peptides to L807-FS C-region; set-up: species or system human
Method: as §1

[4] = biological target: T3, wild-type (WT) human DISC1 C-region (residues 691-836) (Homo sapiens, UniProt Q9NRI5); assay: Bio-layer interferometry (BLI) binding of immobilized peptides to WT C-region
T3 construct: human DISC1 C-region (residues 691-836); His6 (N); made in house; host or cells: E. coli BL21 (DE3) pLysE T1R
T3 sequence (Q9NRI5 691-836): T1 sequence (Q9NRI5 691-836 S704C) with C14S
Method: Protein expression and purification. The wild-type (WT) human DISC1 C-region (residues 691-836) was expressed alternatively as N-terminal His6—fusion construct, which was expressed as previously described using the E. coli BL21 (DE3) pLysE T1R cells. The culture was grown either in Luria-Bertani (LB) broth and protein expression was induced at an OD600 of 0.6 by the addition of 1 mM isopropyl-β-D-thiogalactopyranoside (IPTG) for 16 h at 18° C. Harvested cells were lysed using an ice-chilled microfluidizer M100P (Microfluidics MPT) at 15, 000 PSI in Tris-buffered saline (TBS) buffer containing 10 mM Tris-HCl pH 7.4, 150 mM NaCl and Complete EDTA-free protease inhibitor cocktail (Roche). The soluble fraction was purified on Co^2+-NTA resin (Qiagen) and was eluted using TBS containing 500 mM imidazole. In the next step, the WT C-region protein was further purified on a HiLoad 16/60 Superdex 200 size exclusion chromatography column (GE Healthcare Bio Sciences).
as §1, with “regeneration.” for “regeneration. Data analysis of peptide-protein interaction. In order to assess the binding isotherms of the protein to the immobilized peptides, I derived the binding affinity (KD) by computing the on-rate (Kon) and the off-rate (Koff) by deriving the reciprocals of the exponential fittings of association and dissociation (OriginPro 2020). The binding affinity (KD) was derived by dividing the off-rate (Koff) with the on-rate (Kon).”
Data analysis of peptide-protein interaction. In order to assess the binding isotherms of the protein to the immobilized peptides, I derived the binding affinity (KD) by computing the on-rate (Kon) and the off-rate (Koff) by deriving the reciprocals of the exponential fittings of association and dissociation (OriginPro 2020).
The binding affinity (KD) was derived by dividing the off-rate (Koff) with the on-rate (Kon).

| Substance | Kd [1] [nM] | Kd [2] [nM] | Kd [3] [nM] | Kd [4] [nM] |
| --- | --- | --- | --- | --- |
| HKLHHLLKWENQHKVE-NH2 [Flm11, HKLHHLLKWENQHKVE-NH2] | 720 | 420 | 540 | 1270 |
| SNWHPRHFFMSPSSPQ-NH2 [Flo6, SNWHPRHFFMSPSSPQ-NH2] | 720 | 460 | 170 | 2360 |
| WNHPMNIRSISWHKDS-NH2 [Flm6, WNHPMNIRSISWHKDS-NH2] | 2240 | 1070 | 530 | 2010 |
| GIKSLISNKMHTQWNY-NH2 [Flm5, GIKSLISNKMHTQWNY-NH2] | 150 | 80 | 110 | 640 |
| TSGVPWWKFQQQVRRT-NH2 [Flo11, TSGVPWWKFQQQVRRT-NH2] | 1060 | 890 | 160 | 3680 |
| PWYNAPHSHGFWGSGR-NH2 [Flm9, PWYNAPHSHGFWGSGR-NH2] | 1490 | 1500 | 390 | 3200 |
| FPHPTLKHREFMRHVS-NH2 [Flo1, FPHPTLKHREFMRHVS-NH2] | 160 | 70 | 40 | 100 |
| HISMQTYKWSQWAKHQ-NH2 [Flo3, HISMQTYKWSQWAKHQ-NH2] | 270 | 420 | 400 | 2620 |
| AWQHHELKWKQYQGWR-NH2 [Flm2, AWQHHELKWKQYQGWR-NH2] | 150 | 220 | 110 | 640 |
| IWAGHIHDWWRRGQGS-NH2 [Flm1, IWAGHIHDWWRRGQGS-NH2] | 80 | 80 | 200 | 150 |
| QDNPWWHEHKHWKSWP-NH2 [Flo5, QDNPWWHEHKHWKSWP-NH2] | 360 | 210 | 270 | 250 |
| KYTAIHEWYKAHNGGA-NH2 [Flo8, KYTAIHEWYKAHNGGA-NH2] | 1040 | 460 | 170 | 2620 |

From patent publication US20260258088A1, “DISC1-BINDING PEPTIDES AND THE USE THEREOF FOR THE TREATMENT AND DIAGNOSIS OF SCHIZOPHRENIA AND OTHER CHRONIC MENTAL DISORDERS” (FORSCHUNGSZENTRUM JUELICH GMBH, priority 2022, published 2026)
